Experimental findings from US11932600B2, “Biaryl derivative” (DAIICHI SANKYO COMPANY, LIMITED, priority 2018, dated 2024) are described below.

The target of experiment [1] is T1, human TNAP (Homo sapiens, UniProt P05186).
T1 construct: host or cells: COS1 cells, concentrated and dialyzed culture supernatant
T1 sequence (P05186 18-502 limits assumed): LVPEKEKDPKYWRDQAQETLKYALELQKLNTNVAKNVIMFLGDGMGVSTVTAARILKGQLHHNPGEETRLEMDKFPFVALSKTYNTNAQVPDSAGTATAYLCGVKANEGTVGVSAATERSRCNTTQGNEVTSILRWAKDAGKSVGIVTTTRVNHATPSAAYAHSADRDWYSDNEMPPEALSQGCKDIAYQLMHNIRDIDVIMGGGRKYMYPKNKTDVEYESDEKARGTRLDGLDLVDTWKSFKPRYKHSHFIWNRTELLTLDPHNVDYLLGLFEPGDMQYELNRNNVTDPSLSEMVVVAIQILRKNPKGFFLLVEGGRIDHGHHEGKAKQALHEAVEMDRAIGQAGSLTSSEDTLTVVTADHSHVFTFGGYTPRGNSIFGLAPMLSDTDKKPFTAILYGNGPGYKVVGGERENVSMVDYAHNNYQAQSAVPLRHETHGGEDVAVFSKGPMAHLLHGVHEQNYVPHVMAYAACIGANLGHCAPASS
Put plainly: Inhibitory test of TNAP activity (pNPP substrate, p-nitrophenol production). The following applies: human TNAP from culture supernatant of transfected COS1 cells, 60 minutes at room temperature, ABS 405 nm. The class given is biochemical. The protocol: <Test Examples> (Test Example 1) Inhibitory Test of TNAP Activity
COS1 cells (DS Pharma Biomedical Co., Ltd.) were transfected with human TNAP (OriGene Technologies, Inc.) using Lipofectamine LTX & Plus reagent (Invitrogen Corp.). On the next day, the medium was replaced with a fresh medium, and the cells were cultured in an incubator for 3 days. After 3 days, the culture supernatant was collected and concentrated by centrifugation at 5000 G for 30 minutes using Amicon 14, 10^4 cut (Merck Millipore). The concentrated culture supernatant was dialyzed against 5 L of 50 mM Tris/200 mM NaCl/1 mM MgCl2/20 μM ZnCl2 twice and used as an enzyme source (enzyme solution). The substrate pNPP (ProteoChem Inc.) was adjusted to 3.1 mM with Milli-Q water, and a solution of each test compound dissolved in dimethyl sulfoxide (DMSO; Wako Pure Chemical Industries, Ltd.) by 6 serial dilutions at a 5-fold common ratio from 100 μM or DMSO was added thereto at a final concentration of 1% by volume. The enzyme solution adjusted to 2 μg/mL with an assay buffer (200 mM Tris/2 mM MgCl2/0.04 mM ZnCl2/0.01% Tween 20) was added in the same amount of the substrate solution and incubated at room temperature for 60 minutes. Then, the absorbance (ABS: 405 nm) was measured using a microplate reader (model plus 384, Molecular Devices, LLC), and the concentration of produced p-nitrophenol was calculated.

Experiment [2] relates to plasma ALP (80-90% containing TNAP). Description: Inhibitory test of plasma TNAP activity in B6 mouse. The conditions noted are these: 0.3 mg/kg orally in 0.5% methylcellulose, average inhibition from 0 hour to 6 hours after administration, activity before administration = 100%. It counts as in vivo. The method, then: (Test Example 3) Inhibitory Test of Plasma TNAP Activity in B6 Mouse (Charles River Laboratories Japan, Inc.)
After blood sampling from the tail vein using a heparin-treated hematocrit capillary tube (EM Meister Hematocrit Capillary Tube, AS ONE Corp.) (as the sample before compound administration), each test compound suspended in a 0.5% methylcellulose solution (powder purchased from Wako Pure Chemical Industries, Ltd. was adjusted to 0.5% with Otsuka distilled water) was administered orally to the mouse (0.3 mg/kg). 1, 2, 4, 6, and 24 hours after the administration, blood was collected from the tail vein using a heparin-treated hematocrit capillary tube to obtain a plasma sample. The plasma sample was added to an assay buffer (1 M Tris, 1 M MgCl2, 20 mM ZnCl2, and water, pH 7.5), and the mixture was left standing for 5 minutes. Then, the absorbance at 405 nm was measured and used as a blank. The substrate pNPP was added to the plasma sample and incubated at room temperature for 180 minutes. Then, the absorbance (ABS: 405 nm) was measured using a microplate reader (model plus 384, Molecular Devices, LLC), and the concentration of produced p-nitrophenol was calculated. The blank was subtracted from all measurement values to calculate TNAP activity at each time point with the TNAP activity of the sample before compound administration defined as 100%.
It was calculated according to the following expression: 100−((plasma ALP activity at 0 hr+plasma ALP activity at 1 hr)*1/2+(plasma ALP activity at 1 hr+plasma ALP activity at 2 hr)*1/2+(plasma ALP activity at 2 hr+plasma ALP activity at 4 hr)*2/2+(plasma ALP activity at 4 hr+plasma ALP activity at 6 hr)*2/2)/6.

The term IC50 denotes the concentration that inhibits the measured activity by half.

SMILES strings stand for the structures.

For `CC(C)Oc1cncc(S(=O)(=O)Nc2c(F)cc(Cl)cc2-c2ccc(CCC(=O)O)cc2)c1` [Example 30, 3-[5′-Chloro-3′-fluoro-2′-({5-[(propan-2-yl)oxy]pyridine-3-sulfonyl}amino)[1,1′-biphenyl]-4-yl]propanoic acid], the concentration for half-maximal inhibition (IC50) in experiment [1] turned out to be 0.24 nM. Besides, the “Plasma ALP Inhibition (6 h ave. inhibition %)” value in experiment [2] stood at 69.9%.

`CCc1cncc(S(=O)(=O)Nc2c(F)cc(Cl)cc2-c2ccc(CCC(=O)O)cc2)c1` [Example 29, 3-{5′-Chloro-2′-[(5-ethylpyridine-3-sulfonyl)amino]-3′-fluoro[1,1′-biphenyl]-4-yl}propanoic acid]: the IC50 in experiment [1] is 0.18 nM. Also, the “Plasma ALP Inhibition (6 h ave. inhibition %)” value in experiment [2] is listed as 70.9%.

In experiment [1], `Cc1cncc(S(=O)(=O)Nc2c(F)cc(Cl)cc2-c2ccc(CCC(=O)O)cc2)c1C` [Example 31, 3-{5′-Chloro-2′-[(4,5-dimethylpyridine-3-sulfonyl)amino]-3′-fluoro[1,1′-biphenyl]-4-yl}propanoic acid] showed an IC50 of 0.18 nM. For the same compound, the “Plasma ALP Inhibition (6 h ave. inhibition %)” value in experiment [2] is 82.2%.

Turning to `Cc1cncc(S(=O)(=O)Nc2c(F)cc(Cl)cc2-c2ccc(CC(=O)O)cc2)c1` [Example 11, {5′-Chloro-3′-fluoro-2′-[(5-methylpyridine-3-sulfonyl)amino][1,1′-biphenyl]-4-yl}acetic acid], in experiment [1], the IC50 is 0.14 nM. The “Plasma ALP Inhibition (6 h ave. inhibition %)” value in experiment [2] was 79.0%.

The compound `Cc1cncc(S(=O)(=O)Nc2c(F)cc(Cl)cc2-c2ccc(OC(C)(C)C(=O)O)cc2)c1C` [Example 8, 2-({5′-Chloro-2′-[(4,5-dimethylpyridine-3-sulfonyl)amino]-3′-fluoro[1,1′-biphenyl]-4-yl}oxy)-2-methylpropanoic acid] returned an IC50 in experiment [1] of 0.15 nM. Besides, in experiment [2], the “Plasma ALP Inhibition (6 h ave. inhibition %)” value is 76.2%.

`Cc1cncc(S(=O)(=O)Nc2c(F)cc(Cl)cc2-c2ccc(OC(C)(C)C(=O)O)cc2)c1` [Example 3, 2-({5′-Chloro-3′-fluoro-2′-[(5-methylpyridine-3-sulfonyl)amino][1,1′-biphenyl]-4-yl}oxy)-2-methylpropanoic acid] gave an IC50 in experiment [1] of 0.24 nM. Moreover, in experiment [2], the “Plasma ALP Inhibition (6 h ave. inhibition %)” value was found to be 70.5%.
